Source: patent publication US20250171438A1 (Agios Pharmaceuticals, Inc., priority 2022, published 2025)

Biological target: T1, human PAH with the R408W mutation (Homo sapiens, UniProt P00439, R408W)
T1 construct: expressed in transfected cells
T1 sequence (P00439 1-452 R408W): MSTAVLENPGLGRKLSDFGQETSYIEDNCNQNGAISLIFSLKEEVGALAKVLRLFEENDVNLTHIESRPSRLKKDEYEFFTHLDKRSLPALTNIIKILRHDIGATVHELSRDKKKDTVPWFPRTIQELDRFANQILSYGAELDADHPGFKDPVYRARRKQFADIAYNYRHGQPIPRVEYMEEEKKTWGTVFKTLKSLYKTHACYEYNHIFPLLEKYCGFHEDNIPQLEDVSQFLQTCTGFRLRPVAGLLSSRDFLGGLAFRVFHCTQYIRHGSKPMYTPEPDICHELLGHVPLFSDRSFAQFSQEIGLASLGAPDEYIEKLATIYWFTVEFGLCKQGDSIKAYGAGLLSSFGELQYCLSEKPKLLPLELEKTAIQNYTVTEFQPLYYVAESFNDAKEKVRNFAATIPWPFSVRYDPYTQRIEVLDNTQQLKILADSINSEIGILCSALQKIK
Experiment: Cell Based Phenylalanine Flux Assay
Conditions: A375 cells expressing human R408W PAH; 24 hrs compound incubation; 13C-Tyrosine by LC-MS; average where tested multiple times; read-out: AC50

SMILES | AC50
O=C(c1cnc(-c2ccc(C(F)(F)F)cn2)s1)N1CCc2[nH]cnc2[C@@H]1c1nc2ccccc2s1 [Example 1350, (R)-(4-(benzo[d]thiazol-2-yl)-6,7-dihydro-1H-imidazo[4,5-c]pyridin-5(4H)-yl)(2-(5-(trifluoromethyl)pyridin-2-yl)thiazol-5-yl)methanone] | 1000 to 5000 nM
CC1(C)CC=C(c2ncc(C(=O)N3CCc4[nH]cnc4[C@H]3c3nc4ccccc4s3)s2)CC1 [Example 1351] | 500 to 1000 nM
CC1(C)CC=C(c2ncc(C(=O)N3CCc4[nH]cnc4[C@@H]3c3nc4ccccc4s3)s2)CC1 [Example 1352, (R)-(4-(benzo[d]thiazol-2-yl)-6,7-dihydro-1H-imidazo[4,5-c]pyridin-5(4H)-yl)(2-(4,4-dimethylcyclohex-1-en-1-yl)thiazol-5-yl)methanone] | 1000 to 5000 nM
CC1(C)CCC(c2ncc(C(=O)N3CCc4[nH]cnc4[C@H]3c3nc4ccccc4s3)s2)CC1 [Example 1353] | < 500 nM
CC1(C)CCC(c2ncc(C(=O)N3CCc4[nH]cnc4[C@@H]3c3nc4ccccc4s3)s2)CC1 [Example 1354, (R)-(4-(benzo[d]thiazol-2-yl)-6,7-dihydro-1H-imidazo[4,5-c]pyridin-5(4H)-yl)(2-(4,4-dimethylcyclohexyl)thiazol-5-yl)methanone] | 1000 to 5000 nM
O=C(c1cnc(-c2ccc(C(F)(F)F)nc2)s1)N1CCc2[nH]cnc2[C@@H]1c1nc2ccccc2s1 [Example 1355, (R)-(4-(benzo[d]thiazol-2-yl)-6,7-dihydro-1H-imidazo[4,5-c]pyridin-5(4H)-yl)(2-(6-(trifluoromethyl)pyridin-3-yl)thiazol-5-yl)methanone] | 1000 to 5000 nM
O=C(c1cnc(-c2ccc(C(F)(F)F)nc2)s1)N1CCc2[nH]cnc2[C@H]1c1nc2ccccc2s1 [Example 1356] | 500 to 1000 nM
O=C(c1cnc(-c2cc(C(F)(F)F)ccn2)s1)N1CCc2[nH]cnc2[C@H]1c1nc2ccccc2s1 [Example 1357] | < 500 nM
O=C(c1cnc(-c2cc(C(F)(F)F)ccn2)s1)N1CCc2[nH]cnc2[C@@H]1c1nc2ccccc2s1 [Example 1358, (R)-(4-(benzo[d]thiazol-2-yl)-6,7-dihydro-1H-imidazo[4,5-c]pyridin-5(4H)-yl)(2-(4-(trifluoromethyl)pyridin-2-yl)thiazol-5-yl)methanone] | 1000 to 5000 nM
Cc1c(-c2ncc(C(=O)N3CCc4[nH]cnc4[C@H]3c3nc4ccccc4s3)s2)cnn1C [Example 1359] | < 500 nM
Cc1c(-c2ncc(C(=O)N3CCc4[nH]cnc4[C@@H]3c3nc4ccccc4s3)s2)cnn1C [Example 1360, (R)-(4-(benzo[d]thiazol-2-yl)-6,7-dihydro-1H-imidazo[4,5-c]pyridin-5(4H)-yl)(2-(1,5-dimethyl-1H-pyrazol-4-yl)thiazol-5-yl)methanone] | 1000 to 5000 nM

Second part, the compound after the results:

AC50 | SMILES
< 500 nM | O=C(c1cnc(-c2cnn(CC(F)(F)F)c2)s1)N1CCc2[nH]cnc2[C@H]1c1nc2ccccc2s1 [Example 1361]
1000 to 5000 nM | O=C(c1cnc(-c2cnn(CC(F)(F)F)c2)s1)N1CCc2[nH]cnc2[C@@H]1c1nc2ccccc2s1 [Example 1362, (R)-(4-(benzo[d]thiazol-2-yl)-6,7-dihydro-1H-imidazo[4,5-c]pyridin-5(4H)-yl)(2-(1-(2,2,2-trifluoroethyl)-1H-pyrazol-4-yl)thiazol-5-yl)methanone]
< 500 nM | O=C(c1nnc(C2CC2)o1)N1CCc2[nH]cnc2[C@H]1c1nc2ccccc2s1 [Example 1363]
1000 to 5000 nM | O=C(c1nnc(C2CC2)o1)N1CCc2[nH]cnc2[C@@H]1c1nc2ccccc2s1 [Example 1364, (R)-(4-(benzo[d]thiazol-2-yl)-6,7-dihydro-1H-imidazo[4,5-c]pyridin-5(4H)-yl)(5-cyclopropyl-1,3,4-oxadiazol-2-yl)methanone]
1000 to 5000 nM | O=C(c1nnc(-c2ccc(F)cn2)o1)N1CCc2[nH]cnc2[C@@H]1c1nc2ccccc2s1 [Example 1366, (R)-(4-(benzo[d]thiazol-2-yl)-6,7-dihydro-1H-imidazo[4,5-c]pyridin-5(4H)-yl)(5-(5-fluoropyridin-2-yl)-1,3,4-oxadiazol-2-yl)methanone]
